Data taken from patent US20060159762A1, “Stable pharmaceutical composition comprising an active substance in the form of solid solution” (priority 2004, published 2006).

Experiment: Comparative storage stability: total degradation products and related substances by HPLC
Format: physicochemical
Conditions: for increase of degradation products and related substances relative to the starting analysis, non-formulated active substance versus stable pharmaceutical composition (solid solution): 6 days storage on 60° C.
Procedure: (§1) Comparison of the total amount of degradation products and related substances in non-formulated active substance and in the stable pharmaceutical composition according to the present invention comprising the active substance in the form of solid solution is presented by the graph 1. The pharmaceutical composition is prepared as described in example 2. The amount of degradation products and related substances is determined by HPLC method. [drawing]
as §1, with “in” for “by the”, “2.” for “1.”, “5.” for “2.”, “[drawing] [drawing]” for “[drawing]”

Structure (SMILES): COc1ccc2[n-]c([S+]([O-])Cc3ncc(C)c(OC)c3C)nc2c1.COc1ccc2[n-]c([S+]([O-])Cc3ncc(C)c(OC)c3C)nc2c1.[Mg+2] (stereo not drawn) [esomeprazole magnesium, Esomeprazole magnesium]
- increase of degradation products and related substances relative to the starting analysis, non-formulated active substance versus stable pharmaceutical composition (solid solution) (composition prepared as described in example 2): four times higher
- increase of degradation products and related substances relative to the starting analysis, non-formulated active substance versus stable pharmaceutical composition (solid solution) (composition prepared as described in example 5): > 10 times
- increase of the amount of degradation products and related substances relative to the starting analysis, non-formulated active substance versus stable pharmaceutical composition (solid solution) (14 days storage on 40° C., composition prepared as described in example 2): three times higher
